The values that follow come from US20240308998A1, “PYRROLOPYRIDONE DERIVATIVES USEFUL IN THE TREATMENT OF CANCER” (Tay Therapeutics Limited, priority 2021, published 2024).

The IC50 is the midpoint of a concentration-inhibition curve.

One experiment has as its target T1, BRD4 BD1 (Homo sapiens, UniProt O60885).
T1 construct: HEK293 cells were transfected using NanoLuc-BRD4-BD1 or NanoLuc-BRD4-BD2 fusion vectors; host or cells: HEK293
Put plainly: NanoBRET bromodomain assay, BRD4 BD1. It is filed as cell-based. The note with it: HEK293 cells transfected with NanoLuc-BRD4-BD1. Here is the method:
(§1) HEK293 cells were transfected using NanoLuc-BRD4-BD1 or NanoLuc-BRD4-BD2 fusion vectors and incubated at 37° C. in an atmosphere of 5% CO2 for 20-24 hours. The transfected cells were then dispensed into 96-well plates using 90 μl cell suspension per well containing 2×10^5 cells/ml in Opti-MEM and 1x final concentration of tracer. 90 μl per well of cell suspension without tracer was also dispensed into at least 3 wells as “No tracer control samples” for background correction. Serially diluted test compounds were prepared at 1000× concentration in DMSO and further diluted to 10× concentration in Opti-MEM. 10 μl per well of the serially diluted 10× test compound was added to the 96-well plates containing cells with 1x tracer. Plates were then incubated at 37° C.+5% C02 incubator for 2 hours. Immediately prior to BRET measurements, a 3x solution consisting of 1:166 dilution of Nano-Glo® Substrate plus a 1:500 dilution of Extracellular NanoLuc Inhibitor in Opti-MEM was prepared and 50 μl per well was added to the cells. Donor emission (450 nm) and acceptor emission (610 nm) were measured using PHERAstar (BMG LabTech). For data analysis, the raw BRET ratio was generated and converted to milliBRET units with background correction using the formula: [(Acceptorsample/Donorsample)−(Acceptorno tracer control/Donorno tracer control)]×1000. The mBU data was plotted as a function of compound concentration and IC50s for BRET assay were determined by nonlinear regression analysis of concentration response curves using the GraphPad Prism software.
Background: Bioluminescence resonance energy transfer reports proximity on the nanometre scale.

A further experiment addresses T2, BRD4 BD2 (Homo sapiens, UniProt O60885).
T2 construct: HEK293 cells were transfected using NanoLuc-BRD4-BD1 or NanoLuc-BRD4-BD2 fusion vectors; host or cells: HEK293
Put plainly: NanoBRET bromodomain assay, BRD4 BD2. It is filed as cell-based. The following applies: for Fold selectivity BRD4 BD1/BD2: IC50 BD1/IC50 BD2; for IC50: NanoBRET, HEK293 cells transfected with NanoLuc-BRD4-BD2. Here is the method: as §1
Fold Selectivity Calculated (IC50 BD1/IC50 BD2).

Where only a bound is given, the exact number is not on record here.

On to `Cc1cccc(C)c1Oc1cn(C)c(=O)cc1-c1cn(C)c(=O)c2[nH]c(-c3ccnnc3)cc12` [Example 27, 4-(5-(2,6-dimethylphenoxy)-1-methyl-2-oxo-1,2-dihydropyridin-4-yl)-6-methyl-2-(pyridazin-4-yl)-1,6-dihydro-7H-pyrrolo[2,3-c] pyridin-7-one], for which the IC50 was > 1000 nM on BRD4 BD1 and 50 to 200 nM at BRD4 BD2. The “Fold selectivity BRD4 BD1/BD2” value at BRD4 BD2 was “xx (Fold >50 and ≤200)”.

As for `Cc1cccc(C)c1Oc1cn(C)c(=O)cc1-c1cn(C)c(=O)c2[nH]c(-c3cc(C(F)(F)F)ccc3F)cc12` [Example 34, 4-(5-(2,6-dimethylphenoxy)-1-methyl-2-oxo-1,2-dihydropyridin-4-yl)-2-(2-fluoro-5-(trifluoromethyl)phenyl)-6-methyl-1,6-dihydro-7H-pyrrolo[2,3-c] pyridin-7-one], the figures for the IC50 at BRD4 BD1 and on BRD4 BD2 were > 1000 nM and ≤ 50 nM, respectively. Moreover, on BRD4 BD2, the “Fold selectivity BRD4 BD1/BD2” value was “xxx (Fold >200)”.

Take `Cc1cccc(C)c1Oc1cn(C)c(=O)cc1-c1cn(C)c(=O)c2[nH]c(-c3c(F)cccc3F)cc12` [Example 37, 2-(2,6-difluorophenyl)-4-(5-(2,6-dimethylphenoxy)-1-methyl-2-oxo-1,2-dihydropyridin-4-yl)-6-methyl-1,6-dihydro-7H-pyrrolo[2,3-c] pyridin-7-one]: the IC50 against BRD4 BD1 is > 1000 nM. For the same molecule, on BRD4 BD2, the “Fold selectivity BRD4 BD1/BD2” value is “xx (Fold >50 and ≤200)”; the IC50 lay in the range of 50 to 200 nM.

For `Cc1cc(-c2cc3c(-c4cc(=O)n(C)cc4Oc4c(C)cccc4C)cn(C)c(=O)c3[nH]2)ncn1` [Example 38, 4-(5-(2,6-dimethylphenoxy)-1-methyl-2-oxo-1,2-dihydropyridin-4-yl)-6-methyl-2-(6-methylpyrimidin-4-yl)-1,6-dihydro-7H-pyrrolo[2,3-c] pyridin-7-one], the IC50 against BRD4 BD1 is > 1000 nM. At BRD4 BD2, the “Fold selectivity BRD4 BD1/BD2” value was “xxx (Fold >200)” and the IC50 is ≤ 50 nM.

As for `Cc1cccc(C)c1Oc1cn(C)c(=O)cc1-c1cn(C)c(=O)c2[nH]c(-c3ncccn3)cc12` [Example 39, 4-(5-(2,6-dimethylphenoxy)-1-methyl-2-oxo-1,2-dihydropyridin-4-yl)-6-methyl-2-(pyrimidin-2-yl)-1,6-dihydro-7H-pyrrolo[2,3-c] pyridin-7-one], the figures for the concentration for half-maximal inhibition (IC50) against BRD4 BD1 and at BRD4 BD2 were > 1000 nM and 50 to 200 nM, respectively. The “Fold selectivity BRD4 BD1/BD2” value on BRD4 BD2 was “xx (Fold >50 and ≤200)”.

`Cc1cccc(C)c1Oc1cn(C2COC2)c(=O)cc1-c1cn(C)c(=O)c2[nH]c(-c3cnn(C)c3C)cc12` [Example 40, 2-(1,5-dimethyl-1H-pyrazol-4-yl)-4-(5-(2,6-dimethylphenoxy)-1-(oxetan-3-yl)-2-oxo-1,2-dihydropyridin-4-yl)-6-methyl-1,6-dihydro-7H-pyrrolo[2,3-c] pyridin-7-one]: the IC50 against BRD4 BD1 lay within 50 to 500 nM. Moreover, at BRD4 BD2, the “Fold selectivity BRD4 BD1/BD2” value was “x (Fold >2 and ≤50)”; the IC50 is ≤ 50 nM.

On to `Cc1cccc(C)c1Oc1cn(C2COC2)c(=O)cc1-c1cn(C)c(=O)c2[nH]c(-c3ccccc3F)cc12` [Example 41, 4-(5-(2,6-dimethylphenoxy)-1-(oxetan-3-yl)-2-oxo-1,2-dihydropyridin-4-yl)-2-(2-fluorophenyl)-6-methyl-1,6-dihydro-7H-pyrrolo[2,3-c] pyridin-7-one], for which, on BRD4 BD1, the IC50 was > 1000 nM. In addition, on BRD4 BD2, the “Fold selectivity BRD4 BD1/BD2” value is “xx (Fold >50 and ≤200)”; the 50% inhibitory concentration (IC50) lay within 50 to 200 nM.

As to `Cc1cccc(C)c1Oc1cn(C2CNC2)c(=O)cc1-c1cn(C)c(=O)c2[nH]c(-c3cn(C(C)C)nc3C)cc12` [Example 42, 4-(1-(azetidin-3-yl)-5-(2,6-dimethylphenoxy)-2-oxo-1,2-dihydropyridin-4-yl)-2-(1-isopropyl-3-methyl-1H-pyrazol-4-yl)-6-methyl-1,6-dihydro-7H-pyrrolo[2,3-c]pyridin-7-one], the IC50 on BRD4 BD1 is > 1000 nM; against BRD4 BD2 it was 50 to 200 nM. On BRD4 BD2, the “Fold selectivity BRD4 BD1/BD2” value is “xx (Fold >50 and ≤200)”.

Regarding `Cc1cccc(C)c1Oc1cn(C2CNC2)c(=O)cc1-c1cn(C)c(=O)c2[nH]c(-c3cnn(C(C)C)c3C)cc12` [Example 43, 4-(1-(azetidin-3-yl)-5-(2,6-dimethylphenoxy)-2-oxo-1,2-dihydropyridin-4-yl)-2-(1-isopropyl-5-methyl-1H-pyrazol-4-yl)-6-methyl-1,6-dihydro-7H-pyrrolo[2,3-c] pyridin-7-one], on BRD4 BD1, the IC50 is > 1000 nM. At BRD4 BD2, the “Fold selectivity BRD4 BD1/BD2” value was “x (Fold >2 and ≤50)”; the IC50 is > 1000 nM.

`Cc1cc(-c2cc3c(-c4cc(=O)n(C)cc4Oc4c(C)cccc4C)cn(C)c(=O)c3[nH]2)ccn1` [Example 45, 4-(5-(2,6-dimethylphenoxy)-1-methyl-2-oxo-1,2-dihydropyridin-4-yl)-6-methyl-2-(2-methylpyridin-4-yl)-1,6-dihydro-7H-pyrrolo[2,3-c]pyridin-7-one] gave an IC50 against BRD4 BD1 of 500 to 1000 nM. For the same molecule, at BRD4 BD2, the “Fold selectivity BRD4 BD1/BD2” value was “x (Fold >2 and ≤50)”; the IC50 was ≤ 50 nM.

With `Cc1cccc(C)c1Oc1cn(C)c(=O)cc1-c1cn(C)c(=O)c2[nH]c(-c3cc(F)ccc3F)cc12` [Example 46, 2-(2,5-difluorophenyl)-4-(5-(2,6-dimethylphenoxy)-1-methyl-2-oxo-1,2-dihydropyridin-4-yl)-6-methyl-1,6-dihydro-7H-pyrrolo[2,3-c]pyridin-7-one], the IC50 at BRD4 BD1 was > 1000 nM; against BRD4 BD2, ≤ 50 nM. Further, on BRD4 BD2, the “Fold selectivity BRD4 BD1/BD2” value is “xxx (Fold >200)”.

As for `Cc1cccc(C)c1Oc1cn(C)c(=O)cc1-c1cn(C)c(=O)c2[nH]c(-c3ccccc3C#N)cc12` [Example 48, 2-{4-[5-(2,6-dimethylphenoxy)-1-methyl-2-oxopyridin-4-yl]-6-methyl-7-oxo-1H-pyrrolo[2,3-c]pyridin-2-yl}benzonitrile], the IC50 was > 1000 nM on BRD4 BD1 and ≤ 50 nM against BRD4 BD2. For the same molecule, at BRD4 BD2, the “Fold selectivity BRD4 BD1/BD2” value is “xxx (Fold >200)”.

With `Cc1cc(-c2cc3c(-c4cc(=O)n(C)cc4C4CCCC4)cn(C)c(=O)c3[nH]2)n(C)n1` [Example 52, 5-cyclopentyl-4-[2-(2,5-dimethylpyrazol-3-yl)-6-methyl-7-oxo-1H-pyrrolo[2,3-c]pyridin-4-yl]-1-methylpyridin-2-one], on BRD4 BD1, the IC50 is 50 to 500 nM. For the same molecule, on BRD4 BD2, the “Fold selectivity BRD4 BD1/BD2” value is “x (Fold >2 and ≤50)”; the IC50 is ≤ 50 nM.

On BRD4 BD1, `CC(C)n1cc(-c2cc3c(-c4cc(=O)n(C)cc4C4CCCC4)cn(C)c(=O)c3[nH]2)cn1` [Example 53, 4-(5-cyclopentyl-1-methyl-2-oxo-1,2-dihydropyridin-4-yl)-2-(1-isopropyl-1H-pyrazol-4-yl)-6-methyl-1,6-dihydro-7H-pyrrolo[2,3-c]pyridin-7-one] yielded a concentration for half-maximal inhibition (IC50) of 50 to 500 nM. Also, at BRD4 BD2, the “Fold selectivity BRD4 BD1/BD2” value was “xx (Fold >50 and ≤200)”; the IC50 is ≤ 50 nM.

`Cc1cc(-c2cc3c(-c4cc(=O)n(C)cc4C4CCCC4)cn(C)c(=O)c3[nH]2)cc(C)n1` [Example 54, 5-cyclopentyl-4-[2-(2,6-dimethylpyridin-4-yl)-6-methyl-7-oxo-1H-pyrrolo[2,3-c]pyridin-4-yl]-1-methylpyridin-2-one]: at BRD4 BD1, the 50% inhibitory concentration (IC50) is 50 to 500 nM. On BRD4 BD2, the “Fold selectivity BRD4 BD1/BD2” value is “xx (Fold >50 and ≤200)”; the IC50 was ≤ 50 nM.

`Cn1cc(C2CCCC2)c(-c2cn(C)c(=O)c3[nH]c(-c4ccccc4)cc23)cc1=O` [Example 55, 5-cyclopentyl-1-methyl-4-{6-methyl-7-oxo-2-phenyl-1H-pyrrolo[2,3-c]pyridin-4-yl}pyridin-2-one]: at BRD4 BD1, the IC50 was 50 to 500 nM. Besides, on BRD4 BD2, the “Fold selectivity BRD4 BD1/BD2” value was “x (Fold >2 and ≤50)”; the IC50 was ≤ 50 nM.

Consider `C#Cc1cn(C)c(=O)cc1-c1cn(C)c(=O)c2[nH]c(-c3cnn(C(C)C)c3)cc12` [Example 56, 5-ethynyl-4-[2-(1-isopropylpyrazol-4-yl)-6-methyl-7-oxo-1H-pyrrolo[2,3-c]pyridin-4-yl]-1-methylpyridin-2-one], for which the IC50 on BRD4 BD1 is 50 to 500 nM. At BRD4 BD2, the “Fold selectivity BRD4 BD1/BD2” value is “x (Fold >2 and ≤50)”; the IC50 is ≤ 50 nM.

For `CC#Cc1cn(C)c(=O)cc1-c1cn(C)c(=O)c2[nH]c(-c3cnn(C(C)C)c3)cc12` [Example 57, 4-[2-(1-isopropylpyrazol-4-yl)-6-methyl-7-oxo-1H-pyrrolo[2,3-c]pyridin-4-yl]-1-methyl-5-(prop-1-yn-1-yl)pyridin-2-one], the IC50 on BRD4 BD1 was in the range of 50 to 500 nM. Further, at BRD4 BD2, the “Fold selectivity BRD4 BD1/BD2” value is “x (Fold >2 and ≤50)”; the IC50 was ≤ 50 nM.

`CC#Cc1cn(C)c(=O)cc1-c1cn(C)c(=O)c2[nH]c(-c3cc(C)nc(C)c3)cc12` [Example 58, 4-[2-(2,6-dimethylpyridin-4-yl)-6-methyl-7-oxo-1H-pyrrolo[2,3-c]pyridin-4-yl]-1-methyl-5-(prop-1-yn-1-yl)pyridin-2-one]: at BRD4 BD1, the half-inhibitory concentration (IC50) was > 1000 nM. For the same molecule, on BRD4 BD2, the “Fold selectivity BRD4 BD1/BD2” value was “xxx (Fold >200)” and the 50% inhibitory concentration (IC50) was ≤ 50 nM.
